Reference: US7795303B2, “Active agents combination exhibiting insecticidal and acaricide properties” (Bayer CropScience AG, priority 2003, dated 2010)

Tests used:
[1] = test system: larvae of the mustard beetle (Phaedon cochleariae); experiment: Phaedon larvae test; assay type: in vivo; conditions: 100 ppm, cabbage leaves dipped
Protocol: (§1) To produce a suitable preparation of active compound, 1 part by weight of active compound is mixed with the stated amounts of solvent and emulsifier, and the concentrate is diluted with emulsifier-containing water to the desired concentration.
Cabbage leaves (Brassica oleracea) are treated by being dipped into the preparation of active compound of the desired concentration and are populated with larvae of the mustard beetle (Phaedon cochleariae) while the leaves are still moist.
After the desired period of time, the kill in % is determined. 100% means that all beetle larvae have been killed; 0% means that none of the beetle larvae have been killed. The kill rates determined are calculated using the Colby formula (see page 32).

[2] = test system: caterpillars of the army worm (Spodoptera frugiperda); experiment: Spodoptera frugiperda test; assay type: in vivo; conditions: 100 ppm, cabbage leaves dipped
Protocol: as §1
Cabbage leaves (Brassica oleracea) are treated by being dipped into the preparation of active compound of the desired concentration and are populated with caterpillars of the army worm (Spodoptera frugiperda) while the leaves are still moist.
After the desired period of time, the kill in % is determined. 100% means that all caterpillars have been killed; 0% means that none of the caterpillars have been killed. The kill rates determined are calculated using the Colby formula (see page 32).

Structure (SMILES): Cc1cc(C)c(C2=C(OC(=O)CC(C)(C)C)C3(CCCC3)OC2=O)c(C)c1 [Compound (I-b-1)]
- Kill rate in % after 6 d [1]: 30%
- Kill rate in % after 6 d [2]: 5%
